Measured values: patent EP2524912A1, “Amine derivatives” (Bionomics Limited, priority 2011, dated 2012)

What follows are compounds tested against human Kv1.3 (Homo sapiens, UniProt P22001) (assay: Kv1.3 patch-clamp electrophysiology (planar electrode, whole-cell, steady state current)). Settings: CHO/Kv1.3 stable cell line; steady state current amplitude at end of 500 ms depolarising pulse to +40 mV; values given as ranges; read-out: IC50 (Kv1.3 ephys steady state).
Format: cell-based
Experimental: The inhibition data shown for the compounds of the list below was calculated using the steady state current amplitude at the end of the depolarising pulse in patch clamp evaluations (as described in the Pharmacology Example 2).
The human Kv1.3 construct (Kv1.3/pENTR, clone IOH61428) was purchased from Invitrogen and subcloned into pcDNA 3.2-DEST (Invitrogen). CHO-K1 cells obtained from ATCC (cat #CCL-61) were transfected with the Kv1.3/pcDNA3.2DEST construct and a stable cell line was developed through two rounds of limiting dilution under G418 selection. Positive (Kv1.3 expressing) clones were identified using electrophysiology.
CHO/Kv1.x stable cell lines were grown in a humidified atmosphere at 37 °C, 5% CO2 in T-75 flasks containing F12 Kaighn's medium supplemented with 10% fetal calf serum, 2 mM L-glutamine, 100 units/ml penicillin, 100 µg/ml streptomycin and 500 µg/ml G418 (to maintain selection). CHO/Kv1.1 and CHO/Kv1.5 cells used for patching were transferred to 33 °C for 48 hours prior to use.
Kv1.x currents were measured using a planar electrode version (Nanion Technologies GMBH) of the patch-clamp technique. Whole-cell Kv1.x current transients were evoked by 500 ms depolarising voltage pulses to +40 mV from a holding potential of -80 mV applied at 10 s intervals for Kv1.1 and Kv1.5 and at 30 s intervals for Kv1.3 to allow adequate time for recovery from inactivation. Cells were continuously bathed in a buffered saline solution containing (mM): 160 NaCl, 4.5 KCI, 2 CaCl2, 1 MgCl2, 5 glucose, 10 HEPES, pH 7.4, 290-310 mOsm.Kg^-1. The internal (pipette) solution contained (mM): 10 NaCl, 70 KF, 75 KCI, 2 MgCl2, 10 HEPES, 10 EGTA, pH 7.2, 290-310 mOsm.Kg^-1. Series resistance compensation (60-80%) was applied when the peak current amplitude exceeded 2 nA.
Compounds were initially dissolved in DMSO to 10 mM. After further dilution in DMSO, compounds were finally diluted in bath solution 1/200 (to give a final DMSO concentration of 0.5%) and applied directly to the recording chamber. Compounds were added at increasing concentrations allowing ample time for steady state block to be achieved between each concentration. Each compound was tested at 5-6 different concentrations on 2-3 cells. IC50 values can be determined by fitting the average normalised reduction of either the current integral or the steady state current amplitude at the end of the depolarising pulse obtained at each compound concentration to the Hill equation. The IC50 data reported herein is based on the steady state calculation.

human Kv1.3, sequence (P22001 whole entry): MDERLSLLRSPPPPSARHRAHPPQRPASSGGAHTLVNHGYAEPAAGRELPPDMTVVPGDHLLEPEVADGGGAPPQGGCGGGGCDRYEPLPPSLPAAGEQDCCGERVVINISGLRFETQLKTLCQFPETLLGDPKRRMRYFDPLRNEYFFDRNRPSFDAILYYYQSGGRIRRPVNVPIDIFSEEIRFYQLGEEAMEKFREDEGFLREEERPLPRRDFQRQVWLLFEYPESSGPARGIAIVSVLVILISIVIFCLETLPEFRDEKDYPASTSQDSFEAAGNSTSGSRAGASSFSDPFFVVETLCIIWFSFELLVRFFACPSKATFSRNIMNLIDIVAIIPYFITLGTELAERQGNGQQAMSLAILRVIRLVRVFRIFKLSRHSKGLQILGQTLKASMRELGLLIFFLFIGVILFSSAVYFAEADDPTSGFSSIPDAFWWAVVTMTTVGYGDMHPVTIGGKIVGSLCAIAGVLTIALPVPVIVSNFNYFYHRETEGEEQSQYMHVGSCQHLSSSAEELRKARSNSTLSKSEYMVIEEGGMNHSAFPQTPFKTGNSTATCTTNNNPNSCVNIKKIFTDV

| SMILES | IC50 [nM] |
| --- | --- |
| O=C(CS(=O)(=O)c1ccc(F)cc1)N(Cc1ccccn1)C(c1ccccc1)C1CC1 (stereo not shown) [Example 15, N-[cyclopropyl(phenyl)methyl]-2-[(4-fluorophenyl)sulfonyl]-N-(pyridin-2-ylmethyl)acetamide] | 200 to 1000 |
| CC(C)C(c1ccccc1)N(Cc1ccccn1)C(=O)CCc1ccc(F)cc1 (stereo not shown) [Example 20, 3-(4-fluorophenyl)-N-(2-methyl-1-phenylpropyl)-N-(pyridin-2-ylmethyl)propanamide] | 50 to 200 |
| O=C(CCc1ccc(F)cc1)N(Cc1ccccn1)C(c1ccc(F)cc1)C1CCCC1 (stereo not shown) [Example 21, N-[cyclopentyl(4-fluorophenyl)methyl]-3-(4-fluorophenyl)-N-(pyridin-2-ylmethyl)propanamide] | 50 to 200 |
| CCC(CC)C(c1ccccc1)N(Cc1ccccn1)C(=O)CCc1ccc(F)cc1 (stereo not shown) [Example 22, N-(2-ethyl-1-phenylbutyl)-3-(4-fluorophenyl)-N-(pyridin-2-ylmethyl)propanamide] | 200 to 1000 |
| CC(c1ccccc1)N(Cc1ccccn1)C(=O)CCc1ccc(F)cc1 (stereo not shown) [Example 42, 3-(4-fluorophenyl)-N-(1-phenylethyl)-N-(pyridin-2-ylmethyl)propanamide] | 200 to 1000 |
| CC(CC(=O)N(CCOc1ccccn1)C(C)c1ccc2c(c1)CCC2)c1ccc(F)cc1 (stereo not shown) [Example 46, N-[1-(2,3-dihydro-1H-inden-5-yl)ethyl]-3-(4-fluorophenyl)-N-[2-(pyridin-2-yloxy)ethyl]butanamide] | 50 to 200 |
| CC(c1ccc2c(c1)CCC2)N(CCOc1ccccn1)C(=O)CCCc1ccccc1 (stereo not shown) [Example 51, N-[1-(2,3-dihydro-1H-inden-5-yl)ethyl]-4-phenyl-N-[2-(pyridin-2-yloxy)ethyl]butanamide] | 50 to 200 |
| Cc1cccc(OCCN(C(=O)CCc2ccc(F)cc2)C(C)c2ccc3c(c2)CCC3)n1 (stereo not shown) [Example 53, N-[1-(2,3-dihydro-1H-inden-5-yl)ethyl]-3-(4-fluorophenyl)-N-[2-(6-methylpyridin-2-yloxy)ethyl]propanamide] | 50 to 200 |
| CC(c1ccc2c(c1)SC(C)(C)O2)N(Cc1ccccn1)C(=O)CCc1cccc(C(F)(F)F)c1 (stereo not shown) [Example 62, N-[1-(2,2-dimethyl-1,3-benzoxathiol-5-yl)ethyl]-N-(pyridin-2-ylmethyl)-3-[3-(trifluoromethyl)phenyl]propanamide] | 200 to 1000 |
| CC(c1ccc2c(c1)[S+]([O-])C(C)(C)O2)N(Cc1ccccn1)C(=O)CCc1cccc(C(F)(F)F)c1 (stereo not shown) [Example 63, N-[1-(2,2-dimethyl-3-oxido-1,3-benzoxathiol-5-yl)ethyl]-N-(pyridin-2-ylmethyl)-3-[3-(trifluoromethyl)phenyl]propanamide] | > 1000 |
| COCc1ccccc1C(C)N(Cc1ccccn1)C(=O)CS(=O)(=O)c1ccc(F)cc1 (stereo not shown) [Example 65, 2-[(4-fluorophenyl)sulfonyl]-N-{1-[2-(methoxymethyl)phenyl]ethyl}-N-(pyridin-2-ylmethyl)acetamide] | > 1000 |
| COCc1ccccc1C(C)N(Cc1ccccn1)C(=O)C1(S(=O)(=O)c2ccc(F)cc2)CC1 (stereo not shown) [Example 66, 1-[(4-fluorophenyl)sulfonyl]-N-{1-[2-(methoxymethyl)phenyl]ethyl}-N-(pyridin-2-ylmethyl)cyclopropanecarboxamide] | 50 to 200 |
| CC(CCN(C(=O)CN1CCC(F)CC1)C(C)c1ccc2c(c1)CCC2)c1ccc(F)cc1 (stereo not shown) [Example 70, N-[1-(2,3-dihydro-1H-inden-5-yl)ethyl]-N-[3-(4-fluorophenyl)butyl]-2-(4-fluoropiperidin-1-yl)acetamide] | 50 to 200 |

The next lines start with the values.

| IC50 [nM] | SMILES |
| --- | --- |
| < 50 | COc1ccc(C(C2CC2)N(Cc2ccccn2)C(=O)CC(C)c2ccc(F)cc2)cc1 (stereo not shown) [Example 1, N-[cyclopropyl(4-methoxyphenyl)methyl]-3-(4-fluorophenyl)-N-(pyridin-2-ylmethyl)butanamide] |
| 50 to 200 | COc1ccc(C(C2CC2)N(Cc2ccccn2)C(=O)CCc2ccc(F)cc2)cc1 (stereo not shown) [Example 2, N-[cyclopropyl(4-methoxyphenyl)methyl]-3-(4-fluorophenyl)-N-(pyridin-2-ylmethyl)propanamide] |
| 50 to 200 | O=C(CCc1ccc(F)cc1)N(Cc1ccccn1)C(c1ccc(Cl)cc1)C1CC1 (stereo not shown) [Example 9, N-[cyclopropyl(4-chlorophenyl)methyl]-3-(4-fluorophenyl)-N-(pyridin-2-ylmethyl)propanamide] |
| < 50 | O=C(C1CC1c1ccc(F)cc1)N(Cc1ccccn1)C(c1ccc(Cl)cc1)C1CC1 (stereo not shown) [Example 10, N-[(4-chlorophenyl)(cyclopropyl)methyl]-2-(4-fluorophenyl)-N-(pyridin-2-ylmethyl)cyclopropanecarboxamide] |
| 50 to 200 | O=C(CCc1ccc(F)cc1)N(Cc1ccccn1)C(c1ccccc1)C1CCCC1 (stereo not shown) [Example 23, N-[cyclopentyl(phenyl)methyl]-3-(4-fluorophenyl)-N-(pyridin-2-ylmethyl)propanamide] |
| 50 to 200 | CCC(c1ccc2c(c1)CC(C)O2)N(Cc1ccccn1)C(=O)CCc1ccc(F)cc1 (stereo not shown) [Example 24, 3-(4-fluorophenyl)-N-[1-(2-methyl-2,3-dihydro-1-benzofuran-5-yl)propyl]-N-(pyridin-2-ylmethyl)propanamide] |
| 50 to 200 | Cc1cnc(C)c(OCCN(C(=O)CC(C)c2ccc(F)cc2)C(C)c2ccc3c(c2)CCC3)n1 (stereo not shown) [Example 41, N-[1-(2,3-dihydro-1H-inden-5-yl)ethyl]-3-(4-fluorophenyl)-N-[2-(3,6-dimethylpyrazin-2-yloxy)ethyl]butanamide] |
| 200 to 1000 | COc1ccc(CN(C(=O)CCc2ccc(F)cc2)C(C)c2ccccc2)cn1 (stereo not shown) [Example 43, 3-(4-fluorophenyl)-N-(1-phenylethyl)-N-(6-methoxypyridin-3-ylmethyl)propanamide] |
| 200 to 1000 | CC(CC(=O)N(CCOc1cccc(Cl)n1)C(C)c1ccc2c(c1)CCC2)c1ccc(F)cc1 (stereo not shown) [Example 44, N-[1-(2,3-dihydro-1H-inden-5-yl)ethyl]-3-(4-fluorophenyl)-N-[2-(6-chloropyridin-2-yloxy)ethyl]butanamide] |
| 200 to 1000 | CC(c1ccc2c(c1)CCC2)N(CCOc1cccc(Cl)n1)C(=O)CCc1ccc(F)cc1 (stereo not shown) [Example 45, N-[1-(2,3-dihydro-1H-inden-5-yl)ethyl]-3-(4-fluorophenyl)-N-[2-(6-chloropyridin-2-yloxy)ethyl]propanamide] |
| 50 to 200 | CC(c1ccc2c(c1)CCC2)N(CCOc1ccccn1)C(=O)CCc1ccc(F)cc1 (stereo not shown) [Example 47, N-[1-(2,3-dihydro-1H-inden-5-yl)ethyl]-3-(4-fluorophenyl)-N-[2-(pyridin-2-yloxy)ethyl]propanamide] |
| 200 to 1000 | CC(c1ccc2c(c1)CCC2)N(CCOc1ccccn1)C(=O)C1(c2ccc(Cl)cc2)CCC1 (stereo not shown) [Example 50, 1-(4-chlorophenyl)-N-[1-(2,3-dihydro-1H-inden-5-yl)ethyl]-N-[2-(pyridin-2-yloxy)ethyl]cyclobutanecarboxamide] |
| 200 to 1000 | Cc1cccc(OCCN(C(=O)CC(C)c2ccc(F)cc2)C(C)c2ccc3c(c2)CCC3)n1 (stereo not shown) [Example 52, N-[1-(2,3-dihydro-1H-inden-5-yl)ethyl]-3-(4-fluorophenyl)-N-[2-(6-methylpyridin-2-yloxv)ethyl]butanamide] |
| 200 to 1000 | CC(c1ccc2c(c1)SC(C)(C)O2)N(Cc1ccccn1)C(=O)CCc1ccc(F)cc1 (stereo not shown) [Example 54, N-[1-(2,2-dimethyl-1,3-benzoxathiol-5-yl)ethyl]-3-(4-fluorophenyl)-N-(pyridin-2-ylmethyl)propanamide] |
| 200 to 1000 | COCc1ccccc1C(C)N(Cc1ccccn1)C(=O)CCc1ccc(F)cc1 (stereo not shown) [Example 57, 3-(4-fluorophenyl)-N-{1-[2-(methoxymethyl)phenyl]ethyl}-N-(pyridin-2-ylmethyl)propanamide] |
| 200 to 1000 | CC(c1ccc2c(c1)CCC2)N(Cc1ccccn1)C(=O)CCc1ccc(F)cc1 (stereo not shown) [Example 67, N-[1-(2,3-dihydro-1H-inden-5-yl)ethyl]-3-(4-fluorophenyl)-N-(pyridin-2-ylmethyl)propanamide] |
| 200 to 1000 | CC(CCN(C(=O)c1cccnc1)C(C)c1ccc2c(c1)CCC2)c1ccc(F)cc1 (stereo not shown) [Example 68, N-[1-(2,3-dihydro-1H-inden-5-yl)ethyl]-N-[3-(4-fluorophenyl)butyl]pyridine-3-carboxamide] |
| 50 to 200 | CC(CCN(C(=O)CN1CCCC(F)(F)C1)C(C)c1ccc2c(c1)CCC2)c1ccc(F)cc1 (stereo not shown) [Example 69] |
